Measured values as given in ChEMBL document CHEMBL4184317, “Discovery of Tetrahydroquinoxalines as Bromodomain and Extra-Terminal Domain (BET) Inhibitors with Selectivity for the Second Bromodomain” (J Med Chem, 2018).

Legend:
[1] = molecular target: T1, Bromodomain-containing protein 4 (Homo sapiens, UniProt O60885); experiment: Binding affinity to human partial length DNA-tagged BRD4 isoform long BD2 expressed in bacterial by BROMOscan method
[2] = molecular target: T2, Bromodomain-containing protein 3 (Homo sapiens, UniProt Q15059); experiment: Binding affinity to human partial length DNA-tagged BRD3 BD1 expressed in bacterial by BROMOscan method
[3] = species: Homo sapiens; experiment: Selectivity ratio of IC50 for human BRD2 BD1 to IC50 for human BRD2 BD2
[4] = molecular target: Bromodomain and WD repeat-containing protein 1 (Homo sapiens, UniProt Q9NSI6); experiment: Binding affinity to human partial length DNA-tagged […] BD2 expressed in bacterial by BROMOscan method
[5] = molecular target: T3, Peregrin (Homo sapiens, UniProt P55201); experiment: Displacement of Alexa 647 ligand from 6H-Flag-Tev-BRPF1 (622 to 738 residues) (unknown origin) expressed in Escherichia coli BL21 (DE3) cells after 30 mins by TR-FRET assay
T3 sequence (P55201 whole entry): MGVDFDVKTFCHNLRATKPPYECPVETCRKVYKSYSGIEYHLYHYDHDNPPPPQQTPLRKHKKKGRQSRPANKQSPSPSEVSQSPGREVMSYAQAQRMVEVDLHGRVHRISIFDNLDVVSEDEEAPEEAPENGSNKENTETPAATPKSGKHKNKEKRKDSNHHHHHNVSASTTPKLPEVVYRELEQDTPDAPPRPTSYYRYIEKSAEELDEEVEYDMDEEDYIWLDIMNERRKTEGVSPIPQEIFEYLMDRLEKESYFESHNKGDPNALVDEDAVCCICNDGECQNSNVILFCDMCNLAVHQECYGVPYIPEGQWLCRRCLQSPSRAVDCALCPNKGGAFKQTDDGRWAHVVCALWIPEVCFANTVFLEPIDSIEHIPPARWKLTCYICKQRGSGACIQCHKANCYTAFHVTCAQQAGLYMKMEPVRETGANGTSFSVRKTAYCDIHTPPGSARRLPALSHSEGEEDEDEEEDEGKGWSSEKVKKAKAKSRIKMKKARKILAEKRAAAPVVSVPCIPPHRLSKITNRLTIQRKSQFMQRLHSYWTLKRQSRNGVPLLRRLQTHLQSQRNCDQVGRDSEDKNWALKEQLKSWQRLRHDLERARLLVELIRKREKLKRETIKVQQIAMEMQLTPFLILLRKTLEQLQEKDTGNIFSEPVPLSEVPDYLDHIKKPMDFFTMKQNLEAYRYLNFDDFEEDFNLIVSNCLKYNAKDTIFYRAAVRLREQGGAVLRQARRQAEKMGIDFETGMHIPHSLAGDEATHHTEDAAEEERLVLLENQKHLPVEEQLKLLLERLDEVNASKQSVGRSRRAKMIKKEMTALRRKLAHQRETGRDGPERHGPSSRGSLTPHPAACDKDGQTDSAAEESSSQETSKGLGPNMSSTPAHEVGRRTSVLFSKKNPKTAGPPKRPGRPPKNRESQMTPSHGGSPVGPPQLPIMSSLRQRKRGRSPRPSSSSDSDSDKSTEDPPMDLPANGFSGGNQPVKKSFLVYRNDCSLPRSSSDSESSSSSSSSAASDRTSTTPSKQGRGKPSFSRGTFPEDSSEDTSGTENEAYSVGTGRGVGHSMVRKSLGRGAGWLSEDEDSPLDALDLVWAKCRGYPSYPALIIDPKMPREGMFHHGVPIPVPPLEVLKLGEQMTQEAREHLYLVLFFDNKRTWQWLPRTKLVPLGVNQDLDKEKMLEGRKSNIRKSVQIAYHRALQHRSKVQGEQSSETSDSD

[6] = molecular target: Bromodomain-containing protein 4 (Homo sapiens, UniProt O60885, Y97A)
[7] = molecular target: Histone acetyltransferase KAT2A (Homo sapiens, UniProt Q92830); experiment: Binding affinity to human partial length DNA-tagged GCN5L2 expressed in bacteria by BROMOscan method
[8] = molecular target: T4, Bromodomain testis-specific protein (Homo sapiens, UniProt Q58F21); experiment: Inhibition of BRDT BD2 (unknown origin) after 30 mins by TR-FRET assay
[9] = molecular target: T1, Bromodomain-containing protein 4; experiment: Selectivity ratio of Kd for human partial length DNA-tagged BRD4 isoform long BD1 to Kd for human partial length DNA-tagged BRD4 isoform long BD2
[10] = molecular target: T3, Peregrin; experiment: Binding affinity to human partial length DNA-tagged BRPF1 expressed in bacterial by BROMOscan method
[11] = molecular target: Bromodomain adjacent to zinc finger domain protein 2A (Homo sapiens, UniProt Q9UIF9); experiment: Binding affinity to human partial length DNA-tagged BAZ2A expressed in bacterial by BROMOscan method
[12] = molecular target: T5, Bromodomain-containing protein 2 (Homo sapiens, UniProt P25440); experiment: Selectivity ratio of Kd for human partial length DNA-tagged BRD2 isoform 1 BD1 to Kd for human partial length DNA-tagged BRD2 isoform 1 BD2
Target sequence in this assay (P25440 whole entry, looked up, canonical isoform): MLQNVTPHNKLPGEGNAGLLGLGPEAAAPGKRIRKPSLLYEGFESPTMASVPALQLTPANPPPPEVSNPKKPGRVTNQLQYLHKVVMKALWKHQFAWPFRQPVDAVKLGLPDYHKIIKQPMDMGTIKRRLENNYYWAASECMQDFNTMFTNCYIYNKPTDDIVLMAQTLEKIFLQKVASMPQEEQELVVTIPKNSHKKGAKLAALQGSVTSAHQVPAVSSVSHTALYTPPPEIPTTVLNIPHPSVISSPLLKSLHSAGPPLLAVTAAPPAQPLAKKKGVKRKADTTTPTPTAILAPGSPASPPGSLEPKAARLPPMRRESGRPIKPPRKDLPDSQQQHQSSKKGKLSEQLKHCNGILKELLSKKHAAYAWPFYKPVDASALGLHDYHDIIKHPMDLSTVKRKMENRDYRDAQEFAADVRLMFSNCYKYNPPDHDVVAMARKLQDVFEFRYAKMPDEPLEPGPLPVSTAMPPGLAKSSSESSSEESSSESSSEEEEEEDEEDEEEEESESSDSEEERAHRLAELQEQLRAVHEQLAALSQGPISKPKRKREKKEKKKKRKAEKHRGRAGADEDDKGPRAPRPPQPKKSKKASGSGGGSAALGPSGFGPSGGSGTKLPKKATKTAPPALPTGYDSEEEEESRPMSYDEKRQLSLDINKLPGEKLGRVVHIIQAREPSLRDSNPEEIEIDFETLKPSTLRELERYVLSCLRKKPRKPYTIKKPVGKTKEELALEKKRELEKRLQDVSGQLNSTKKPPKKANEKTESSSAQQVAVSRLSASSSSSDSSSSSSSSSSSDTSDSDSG

[13] = molecular target: T5, Bromodomain-containing protein 2; experiment: Inhibition of human BRD2 BD1 after 30 mins by TR-FRET assay
Target sequence in this assay (P25440 whole entry, canonical isoform): as the sequence (P25440 whole entry, looked up, canonical isoform) above

[14] = molecular target: T4, Bromodomain testis-specific protein; experiment: Binding affinity to human partial length DNA-tagged BRDT isoform b BD2 expressed in bacterial by BROMOscan method
[15] = molecular target: Bromodomain adjacent to zinc finger domain protein 2B (Homo sapiens, UniProt Q9UIF8); experiment: Binding affinity to human partial length DNA-tagged BAZ2B expressed in bacterial by BROMOscan method
[16] = molecular target: T2, Bromodomain-containing protein 3; experiment: Inhibition of BRD3 BD1 (unknown origin) after 30 mins by TR-FRET assay
[17] = molecular target: E3 ubiquitin-protein ligase TRIM33 (Homo sapiens, UniProt Q9UPN9); experiment: Binding affinity to human partial length DNA-tagged TRIM33(PHD,Bromo.) expressed in bacteria by BROMOscan method
[18] = molecular target: Bromodomain-containing protein 1 (Homo sapiens, UniProt O95696); experiment: Binding affinity to human partial length DNA-tagged BRD1 expressed in bacterial by BROMOscan method
[19] = molecular target: Protein polybromo-1 (Homo sapiens, UniProt Q86U86); experiment: Binding affinity to human partial length DNA-tagged PBRM1 BD5 expressed in bacteria by BROMOscan method
[20] = molecular target: SWI/SNF-related matrix-associated actin-dependent regulator of chromatin subfamily A member 2 (Homo sapiens, UniProt P51531); experiment: Binding affinity to human partial length DNA-tagged SMARCA2 expressed in bacteria by BROMOscan method
[21] = molecular target: Nucleosome-remodeling factor subunit BPTF (Homo sapiens, UniProt Q12830); experiment: Binding affinity to human partial length DNA-tagged FALZ isoform1 expressed in bacteria by BROMOscan method
[22] = molecular target: Bromodomain and PHD finger-containing protein 3 (Homo sapiens, UniProt Q9ULD4); experiment: Binding affinity to human partial length DNA-tagged BRPF3 expressed in bacteria by BROMOscan method
[23] = molecular target: T4, Bromodomain testis-specific protein; experiment: Binding affinity to human partial length DNA-tagged BRDT isoform b BD1 expressed in bacterial by BROMOscan method
[24] = molecular target: Bromodomain-containing protein 8 (Homo sapiens, UniProt Q9H0E9); experiment: Binding affinity to DNA-tagged BRD8 (unknown origin) by BROMOscan method

T2 sequence (Q15059 whole entry): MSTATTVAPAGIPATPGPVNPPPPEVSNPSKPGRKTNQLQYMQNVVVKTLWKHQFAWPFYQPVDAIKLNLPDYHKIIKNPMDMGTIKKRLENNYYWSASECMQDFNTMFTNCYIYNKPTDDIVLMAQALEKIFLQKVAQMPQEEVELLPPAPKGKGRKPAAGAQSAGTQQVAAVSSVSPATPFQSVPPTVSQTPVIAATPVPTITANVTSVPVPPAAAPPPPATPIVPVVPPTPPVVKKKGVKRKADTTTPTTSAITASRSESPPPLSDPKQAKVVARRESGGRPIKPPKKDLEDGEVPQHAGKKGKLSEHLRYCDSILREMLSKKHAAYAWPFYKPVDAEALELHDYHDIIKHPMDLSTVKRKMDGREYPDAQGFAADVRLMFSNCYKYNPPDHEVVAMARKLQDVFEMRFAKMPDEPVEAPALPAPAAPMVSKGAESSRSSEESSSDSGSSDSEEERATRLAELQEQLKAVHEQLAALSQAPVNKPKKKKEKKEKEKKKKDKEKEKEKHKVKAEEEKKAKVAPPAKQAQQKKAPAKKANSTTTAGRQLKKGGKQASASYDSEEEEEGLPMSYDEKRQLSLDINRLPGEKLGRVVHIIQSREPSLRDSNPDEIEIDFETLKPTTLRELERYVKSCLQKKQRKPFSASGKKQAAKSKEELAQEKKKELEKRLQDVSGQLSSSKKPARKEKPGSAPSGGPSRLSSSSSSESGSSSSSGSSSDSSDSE
E3 ubiquitin-protein ligase TRIM33, sequence (Q9UPN9 whole entry): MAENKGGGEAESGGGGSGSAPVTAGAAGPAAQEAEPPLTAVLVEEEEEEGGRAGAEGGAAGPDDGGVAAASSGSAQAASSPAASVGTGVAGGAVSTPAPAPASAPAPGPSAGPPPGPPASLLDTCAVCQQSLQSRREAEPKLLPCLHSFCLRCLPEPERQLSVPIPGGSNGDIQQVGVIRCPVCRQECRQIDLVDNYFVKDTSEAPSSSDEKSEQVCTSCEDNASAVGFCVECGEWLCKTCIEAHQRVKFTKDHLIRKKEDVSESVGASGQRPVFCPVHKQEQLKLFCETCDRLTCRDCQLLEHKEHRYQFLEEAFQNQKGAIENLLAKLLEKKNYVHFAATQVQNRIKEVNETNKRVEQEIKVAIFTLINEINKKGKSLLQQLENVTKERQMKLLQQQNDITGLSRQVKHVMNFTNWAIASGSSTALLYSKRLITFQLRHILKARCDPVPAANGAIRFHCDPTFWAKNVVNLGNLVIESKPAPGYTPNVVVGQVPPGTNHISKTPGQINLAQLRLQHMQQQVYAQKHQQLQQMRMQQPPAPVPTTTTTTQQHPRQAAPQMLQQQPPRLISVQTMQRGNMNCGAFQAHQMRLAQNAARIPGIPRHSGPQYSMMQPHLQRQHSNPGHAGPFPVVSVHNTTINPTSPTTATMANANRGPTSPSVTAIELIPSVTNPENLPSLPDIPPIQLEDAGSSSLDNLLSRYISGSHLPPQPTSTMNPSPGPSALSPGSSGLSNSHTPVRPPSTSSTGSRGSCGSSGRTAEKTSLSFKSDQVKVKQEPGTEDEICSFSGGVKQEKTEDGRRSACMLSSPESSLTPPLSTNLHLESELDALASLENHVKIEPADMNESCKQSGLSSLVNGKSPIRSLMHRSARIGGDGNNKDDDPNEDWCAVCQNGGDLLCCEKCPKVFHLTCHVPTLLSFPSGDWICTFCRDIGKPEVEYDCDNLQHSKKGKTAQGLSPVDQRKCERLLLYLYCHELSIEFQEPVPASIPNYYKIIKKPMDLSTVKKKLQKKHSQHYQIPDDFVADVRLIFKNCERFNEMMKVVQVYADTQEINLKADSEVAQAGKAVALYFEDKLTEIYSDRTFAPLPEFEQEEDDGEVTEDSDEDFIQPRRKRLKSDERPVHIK
SWI/SNF-related matrix-associated actin-dependent regulator of chromatin subfamily A member 2, sequence (P51531 whole entry, canonical isoform): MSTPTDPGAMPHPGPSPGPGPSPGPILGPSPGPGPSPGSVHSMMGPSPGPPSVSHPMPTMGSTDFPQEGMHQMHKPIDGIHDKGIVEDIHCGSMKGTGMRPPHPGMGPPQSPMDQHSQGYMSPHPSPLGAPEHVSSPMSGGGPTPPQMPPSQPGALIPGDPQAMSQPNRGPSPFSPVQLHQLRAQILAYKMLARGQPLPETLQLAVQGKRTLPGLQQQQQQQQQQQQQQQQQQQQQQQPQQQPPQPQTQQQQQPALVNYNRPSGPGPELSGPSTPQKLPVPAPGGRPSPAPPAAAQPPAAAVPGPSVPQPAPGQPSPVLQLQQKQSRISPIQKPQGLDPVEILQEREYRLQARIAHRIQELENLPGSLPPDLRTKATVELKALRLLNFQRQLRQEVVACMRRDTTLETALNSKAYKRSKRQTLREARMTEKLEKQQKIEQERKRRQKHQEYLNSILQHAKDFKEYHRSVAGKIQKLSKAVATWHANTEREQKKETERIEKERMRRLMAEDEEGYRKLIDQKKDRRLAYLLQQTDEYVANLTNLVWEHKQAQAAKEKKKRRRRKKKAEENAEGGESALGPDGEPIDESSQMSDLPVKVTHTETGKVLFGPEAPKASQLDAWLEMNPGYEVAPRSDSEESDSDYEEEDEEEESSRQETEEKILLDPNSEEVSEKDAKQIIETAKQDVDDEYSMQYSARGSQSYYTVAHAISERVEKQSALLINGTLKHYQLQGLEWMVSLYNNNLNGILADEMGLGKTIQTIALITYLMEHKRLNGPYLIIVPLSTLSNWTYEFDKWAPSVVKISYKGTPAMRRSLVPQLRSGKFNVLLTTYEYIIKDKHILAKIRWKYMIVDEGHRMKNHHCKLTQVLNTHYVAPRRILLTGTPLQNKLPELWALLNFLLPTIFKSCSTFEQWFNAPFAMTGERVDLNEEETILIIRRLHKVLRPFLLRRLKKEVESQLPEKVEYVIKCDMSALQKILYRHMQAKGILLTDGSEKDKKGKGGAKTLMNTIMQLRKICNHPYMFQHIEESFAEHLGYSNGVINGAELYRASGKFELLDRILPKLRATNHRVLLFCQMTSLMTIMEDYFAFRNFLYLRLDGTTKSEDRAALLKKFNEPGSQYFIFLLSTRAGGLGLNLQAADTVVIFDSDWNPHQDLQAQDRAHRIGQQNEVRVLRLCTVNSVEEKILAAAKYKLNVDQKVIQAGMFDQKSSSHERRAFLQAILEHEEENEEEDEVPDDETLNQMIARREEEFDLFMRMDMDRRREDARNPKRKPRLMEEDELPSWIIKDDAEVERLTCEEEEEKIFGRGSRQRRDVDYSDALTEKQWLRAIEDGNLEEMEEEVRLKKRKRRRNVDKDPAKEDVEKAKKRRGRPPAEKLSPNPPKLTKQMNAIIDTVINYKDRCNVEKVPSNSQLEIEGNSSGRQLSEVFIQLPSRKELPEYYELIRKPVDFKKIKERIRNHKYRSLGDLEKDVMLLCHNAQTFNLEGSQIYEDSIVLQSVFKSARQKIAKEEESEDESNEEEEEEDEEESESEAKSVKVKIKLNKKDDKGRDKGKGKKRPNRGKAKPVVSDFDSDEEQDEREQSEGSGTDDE

`CC(=O)N1c2ccc(C3=CCNCC3)cc2N(Cc2ccccc2CO)C[C@@H]1C1CC1` gave a Kd [1] of 6.61 nM, a Kd [2] of 912 nM and a Ratio IC50 [3] of 8. For the same compound, the Kd [4] was 15100 nM, the IC50 [5] was 20000 nM and the IC50 [6] was 63.1 nM. For the same compound, the Kd [7] was greater than 30200 nM, the IC50 [8] was 200 nM and the Selectivity ratio [9] was 229. The Kd [10] was 2450 nM, the Kd [11] was greater than 30200 nM and the Selectivity ratio [12] was 41. The IC50 [13] was 2510 nM, the Kd [14] was 20.9 nM and the Kd [15] was greater than 30200 nM. For the same compound, the IC50 [16] was 1260 nM, the Kd [17] was greater than 30200 nM and the Kd [18] was greater than 30200 nM. For the same compound, the Kd [19] was greater than 30200 nM, the Kd [20] was greater than 30200 nM and the Kd [21] was greater than 30200 nM. For the same compound, the Kd [22] was greater than 30200 nM, the Kd [23] was 1860 nM and the Kd [24] was greater than 30200 nM.
